Experimental data reported in CN116444420A, “β-catenin/BCL9蛋白蛋白相互作用的小分子抑制剂及其应用” (Shanghai Pharmaceutical Industry Research Institute Co ltd, priority 2021, dated 2023).
Where two headings read alike, the source gives them in different places.

Experiments:
[1] = molecular target: T1, hERG potassium channel [hERG钾离子通道] (Homo sapiens, UniProt Q12809); test: hERG potassium channel, whole-cell patch clamp (Example 73); assay type: cell-based
T1 construct: expressed in transfected cells; host or cells: HEK293 (stably transfected)
T1 sequence (Q12809 whole entry): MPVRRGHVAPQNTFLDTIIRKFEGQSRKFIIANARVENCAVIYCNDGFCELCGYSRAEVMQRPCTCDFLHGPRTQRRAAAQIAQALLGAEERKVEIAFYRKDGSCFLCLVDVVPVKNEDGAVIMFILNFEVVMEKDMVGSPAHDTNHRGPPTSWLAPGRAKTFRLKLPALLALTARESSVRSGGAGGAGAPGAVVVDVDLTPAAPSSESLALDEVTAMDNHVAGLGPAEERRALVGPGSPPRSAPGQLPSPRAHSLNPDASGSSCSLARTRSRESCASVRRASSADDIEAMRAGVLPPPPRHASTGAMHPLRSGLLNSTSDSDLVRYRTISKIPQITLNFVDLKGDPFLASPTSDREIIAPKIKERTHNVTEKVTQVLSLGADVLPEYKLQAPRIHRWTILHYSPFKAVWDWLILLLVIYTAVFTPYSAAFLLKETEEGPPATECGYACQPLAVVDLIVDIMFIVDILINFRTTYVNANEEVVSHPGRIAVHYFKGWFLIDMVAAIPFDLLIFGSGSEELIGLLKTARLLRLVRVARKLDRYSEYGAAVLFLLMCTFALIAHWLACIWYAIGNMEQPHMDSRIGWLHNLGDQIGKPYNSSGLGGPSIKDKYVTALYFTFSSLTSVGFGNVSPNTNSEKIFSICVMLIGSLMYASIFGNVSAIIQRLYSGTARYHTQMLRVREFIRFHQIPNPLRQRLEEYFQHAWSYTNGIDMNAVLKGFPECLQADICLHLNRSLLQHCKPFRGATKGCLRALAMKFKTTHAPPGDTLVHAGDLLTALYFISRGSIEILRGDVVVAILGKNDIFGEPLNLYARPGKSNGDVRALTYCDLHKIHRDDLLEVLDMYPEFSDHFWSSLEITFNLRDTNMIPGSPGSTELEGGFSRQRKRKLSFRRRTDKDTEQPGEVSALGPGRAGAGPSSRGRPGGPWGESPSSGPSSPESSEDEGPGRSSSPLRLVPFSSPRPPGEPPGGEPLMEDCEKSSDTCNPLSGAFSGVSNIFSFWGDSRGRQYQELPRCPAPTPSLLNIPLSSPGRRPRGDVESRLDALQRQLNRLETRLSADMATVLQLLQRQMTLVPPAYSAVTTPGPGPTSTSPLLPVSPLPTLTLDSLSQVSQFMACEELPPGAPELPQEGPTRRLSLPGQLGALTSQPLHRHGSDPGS

[2] = system: CT26 colon cancer cells in BALB/c mice [CT26结肠癌细胞]; test: In vivo experiment 2: CT26 colon cancer mouse model, II-39 (Example 76)
CT-26 cells = test: CCK-8 antiproliferative activity of II-39, CT-26; assay type: cell-based, human; conditions: 10μM
[3] = system: HEK293 human normal cells [HEK293人正常细胞]; conditions: 10μM
[4] = system: HCT-116, CT-26, SW480, A549, RKO cells [人结肠癌细胞HCT-116、人结肠癌细胞CT-26、人结肠癌细胞SW480、人肺癌细胞A549、人结肠腺癌细胞RKO]; test: CCK-8 antiproliferative activity of II-39, cancer cell panel (Example 72, part 2); assay type: cell-based, human; conditions: 10μM
[5] = Liver microsome metabolic stability (Example 75); assay type: in vitro ADME; conditions: 0.5 mg/mL liver microsomal protein, 1μM, NADPH, 37℃
[6] = system: CT26 colon cancer cells in BALB/c mice [CT26结肠癌细胞]; test: In vivo experiment 1: CT26 colon cancer mouse model, II-25 and II-27 (Example 76); conditions: 30mg/kg once daily; for inhibition of tumour growth: after 5 days of dosing
[7] = molecular target: T2, β-catenin/BCL9 protein-protein [β-catenin/BCL9蛋白-蛋白] (Homo sapiens, UniProt P35222); test: β-catenin/BCL9 protein-protein affinity, fluorescence polarisation (Example 71); assay type: binding; conditions: better than compound c
T2 construct: β-catenin(1-781)
T2 sequence (P35222 1-781): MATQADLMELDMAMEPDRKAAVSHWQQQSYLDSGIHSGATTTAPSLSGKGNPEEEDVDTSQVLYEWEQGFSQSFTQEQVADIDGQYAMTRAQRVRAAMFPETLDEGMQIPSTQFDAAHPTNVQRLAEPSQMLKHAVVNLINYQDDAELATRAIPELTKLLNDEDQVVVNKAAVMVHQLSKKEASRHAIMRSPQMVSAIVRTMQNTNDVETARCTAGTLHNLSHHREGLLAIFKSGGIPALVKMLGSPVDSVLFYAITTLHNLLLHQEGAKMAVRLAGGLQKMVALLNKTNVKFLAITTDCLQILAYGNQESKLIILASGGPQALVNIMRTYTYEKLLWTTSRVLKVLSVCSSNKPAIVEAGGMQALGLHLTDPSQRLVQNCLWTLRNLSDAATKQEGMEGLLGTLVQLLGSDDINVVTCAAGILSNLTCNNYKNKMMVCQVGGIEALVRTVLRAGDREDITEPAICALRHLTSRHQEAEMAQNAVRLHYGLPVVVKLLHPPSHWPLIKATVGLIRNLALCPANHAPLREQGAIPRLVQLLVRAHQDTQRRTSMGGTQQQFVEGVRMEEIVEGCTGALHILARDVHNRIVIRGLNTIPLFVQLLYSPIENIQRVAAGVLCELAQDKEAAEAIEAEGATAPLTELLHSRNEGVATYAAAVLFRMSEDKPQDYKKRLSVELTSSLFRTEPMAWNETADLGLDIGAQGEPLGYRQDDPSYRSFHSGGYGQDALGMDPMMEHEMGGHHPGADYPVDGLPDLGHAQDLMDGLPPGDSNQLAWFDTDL

[8] = whole-cell patch clamp, HEK293 cells stably transfected, room temperature, read-out: hERG IC50

| Compound | IC50 [1, 8] [µM] | affinity activity compared with reference compound c [7] | liver microsome metabolic stability ([5]; Table 4) | further results |
| --- | --- | --- | --- | --- |
| CC(C)c1ccc(-c2cccc(S(=O)(=O)N3CCCC(c4cccc(OC(C)(C)C(=O)NS(=O)(=O)c5ccc(C(F)(F)F)cc5)c4)C3)c2)cc1 (centres unmarked) [化合物II-39, 2-(3-(1-((4'-异丙基-[1,1'-联苯]-3-基)磺酰基)哌啶-3-基(苯氧基)-2-甲基-N-((4-(三氟甲基)苯基)磺酰)丙酰胺] | > 10 |  |  | body weight ([2]; II-39 30mg/kg i.p. once daily): 未观察到小鼠体重有明显减轻; tolerability / safety ([2]; II-39 30mg/kg i.p. once daily): 动物耐受,安全性良好; tumour inhibition in combination with PD-1 antibody ([2]; II-39 30mg/kg i.p. once daily + PD-1 antibody 10mg/kg i.p. twice a week): 肿瘤得到进一步的抑制; inhibition of colon cancer growth ([2]; II-39 30mg/kg intraperitoneal once daily): 可以很好的抑制结肠癌的生长; TGI ([2]; combination: II-39 30mg/kg i.p. once daily + PD-1 antibody 10mg/kg i.p. twice a week): 81.1%; antiproliferative activity compared with ICG-001 (CT-26 cells): 显著的优于阳性对照药ICG-001; effect on normal cells [3]: 没有影响; anti-colon-cancer activity [4]: 表现出较好的抗结肠癌活性; liver microsome metabolic stability ([5]; Table 5): 肝微粒体代谢稳定 |
| Cc1ccc(-c2cccc(S(=O)(=O)N3CCCC(c4cccc(OC(C)(C)C(=O)N5CCNCC5)c4)C3)c2)cc1C.Cl (centres unmarked) [化合物II-25, 4-(2-(3-(1-((3',4'-二甲基-[1,1'-联苯]-3-基)磺酰基)哌啶-3-基)苯氧基)-2-甲基丙酰基)哌嗪-1-氯化铵] |  | 亲和活性更优 |  | tolerability / safety [6]: 动物耐受,安全性良好; inhibition of tumour growth [6]: 可显著抑制小鼠体内肿瘤的生长; IC50 [1]: > 10 µM |
| Cc1ccc(-c2cccc(S(=O)(=O)N3CCCC(c4cccc(OC(C)(C)C(=O)NS(=O)(=O)c5ccccc5)c4)C3)c2)cc1C (centres unmarked) [化合物II-27, 2-(3-(1-((3',4'-二甲基-[1,1'-联苯基]-3-基)磺酰基)哌啶-3-基)苯氧基)-2-甲基-N-(苯磺酰基))丙酰胺] | > 10 | 亲和活性更优 | 肝微粒体代谢稳定 | tolerability / safety [6]: 动物耐受,安全性良好; inhibition of tumour growth [6]: 可显著抑制小鼠体内肿瘤的生长 |
| CC(C)c1ccc(-c2cccc(S(=O)(=O)N3CCCC(c4cccc(OC(C)(C)C(=O)O)c4)C3)c2)cc1 (centres unmarked) [化合物II-13, 2-(3-(1-((4'-异丙基-[1,1'-联苯基]-3-基)磺酰基)哌啶-3-基)苯氧基)-2-甲基丙酸] | > 10 | 亲和活性更优 | 肝微粒体代谢稳定 |  |
| CC(C)(Oc1cccc(C2CCCN(C(=O)c3cccc(-c4ccc(F)c(F)c4)c3)C2)c1)C(=O)O (centres unmarked) [化合物II-2, 2-(3-(1-(3',4'-二氟-[1,1'-联苯基]-3-羰基)哌啶-3-基)苯氧基)-2-甲基丙酸] | > 10 |  |  |  |
| CC(C)c1ccc(-c2cccc(S(=O)(=O)N3CCCC(c4cccc(OC(C)(C)C(=O)NS(=O)(=O)c5ccccc5)c4)C3)c2)cc1 (centres unmarked) [化合物II-28, 2-(3-(1-((4'-异丙基-[1,1'-联苯基]-3-基)磺酰基)哌啶-3-基)苯氧基)-2-甲基-N-(苯磺酰基)丙酰胺] | > 10 | 亲和活性更优 | 肝微粒体代谢稳定 |  |
| CC(C)(Oc1cccc(C2CCCN(S(=O)(=O)c3cccc(-c4ccsc4)c3)C2)c1)C(=O)O (centres unmarked) [化合物II-14, 2-甲基-2-(3-(1-((3-(噻吩-3-基)苯基)磺酰基)哌啶-3-基)苯氧基)丙酸] | > 10 |  |  |  |
| CC(=O)Nc1ccc(S(=O)(=O)NC(=O)C(C)(C)Oc2cccc(C3CCCN(S(=O)(=O)c4cccc(-c5ccc(C(C)C)cc5)c4)C3)c2)cc1 (centres unmarked) [化合物II-49, N-((4-乙酰氨基苯基)磺酰基)-2-(3-(1-((4'-异丙基-[1,1'-联苯]-3-基)磺酰)哌啶-3-基(苯氧基)-2-甲基丙酰胺] |  | 亲和活性更优 |  |  |
| CC(C)(Oc1cccc(C2CCCN(C(=O)c3cccc(-c4ccc(F)c(F)c4)c3)C2)c1)C(=O)N1CCC(N)CC1.Cl (centres unmarked) [化合物II-59, 1-(2-(3-(1-(3',4'-二氟-[1,1'-联苯]-3-羰基)哌啶-3-基)苯氧基)-2-甲基丙酰基)哌嗪-4-氯化铵] |  | 亲和活性更优 |  |  |
